Legend:
[1] = molecular target: Sodium channel protein type 10 subunit alpha (Mus musculus, UniProt Q6QIY3); test: Inhibition of mouse recombinant Nav 1.8 channel expressed in HEK293 cells by isotopic efflux assay; format: cell-based
[2] = molecular target: T1, Sodium channel protein type 10 subunit alpha (Homo sapiens, UniProt Q9Y5Y9); test: Activity at human recombinant Nav 1.8 channel expressed in HEK293 cells in resting state with prepulse voltage of -100 mV assessed as blockade of TTx-resistant sodium current at 0.3 uM; format: cell-based
[3] = molecular target: T1, Sodium channel protein type 10 subunit alpha; test: Inhibition of human recombinant Nav 1.8 channel expressed in HEK293 cells at 0.03 uM; format: cell-based
[4] = molecular target: T1, Sodium channel protein type 10 subunit alpha; test: Inhibition of human recombinant Nav 1.8 channel expressed in HEK293 cells at 0.3 uM; format: cell-based
[5] = Activity at rat dorsal root ganglion in resting state with prepulse voltage of -100 mV assessed as blockade of TTx-resistant sodium current at 0.003 uM by whole-cell patch clamp technique; format: functional
[6] = Activity at rat dorsal root ganglion in inactivated state with prepulse voltage of -40 mV assessed as blockade of TTx-resistant sodium current at 0.03 uM by whole-cell patch clamp technique; format: functional
[7] = molecular target: T1, Sodium channel protein type 10 subunit alpha; test: Activity at human recombinant Nav 1.8 channel expressed in HEK293 cells in resting state with prepulse voltage of -100 mV assessed as blockade of TTx-resistant sodium current at 0.03 uM; format: cell-based
[8] = molecular target: T1, Sodium channel protein type 10 subunit alpha; test: Activity at human recombinant Nav 1.8 channel expressed in HEK293 cells in inactivated state with prepulse voltage of -40 mV assessed as blockade of TTx-resistant sodium current at 0.3 uM; format: cell-based
[9] = molecular target: Sodium channel protein type 3 subunit alpha (Homo sapiens) (UniProt Q9NY46); test: Inhibition of human Nav1.3 channel at 3 uM
[10] = molecular target: Nav1.5 (sodium channel protein type 5 subunit alpha) (Homo sapiens, UniProt Q14524); test: Inhibition of human Nav1.5 channel at 3 uM
[11] = molecular target: Voltage-gated inwardly rectifying potassium channel KCNH2 (Homo sapiens, UniProt Q12809); test: Inhibition of hERG potassium channel expressed in CHO cells by isotope efflux assay
[12] = Activity at rat dorsal root ganglion in inactivated state with prepulse voltage of -40 mV assessed as blockade of TTx-resistant sodium current at 0.003 uM by whole-cell patch clamp technique; format: functional
[13] = molecular target: Sodium channel protein type 2 subunit alpha (Homo sapiens) (UniProt Q99250); test: Inhibition of human Nav1.2 channel at 3 uM
[14] = molecular target: Sodium channel protein type 9 subunit alpha (Homo sapiens) (UniProt Q15858); test: Inhibition of human Nav1.7 channel at 3 uM
[15] = molecular target: T1, Sodium channel protein type 10 subunit alpha; test: Activity at human recombinant Nav 1.8 channel expressed in HEK293 cells in inactivated state with prepulse voltage of -40 mV assessed as blockade of TTx-resistant sodium current at 0.03 uM; format: cell-based
[16] = Activity at rat dorsal root ganglion in resting state with prepulse voltage of -100 mV assessed as blockade of TTx-resistant sodium current at 0.3 uM by whole-cell patch clamp technique; format: functional
[17] = molecular target: T1, Sodium channel protein type 10 subunit alpha; test: Activity at human recombinant Nav 1.8 channel expressed in HEK293 cells in inactivated state with prepulse voltage of -40 mV assessed as blockade of TTx-resistant sodium current at 0.1 uM; format: cell-based
[18] = molecular target: Sodium channel protein type 3 subunit alpha (Homo sapiens) (UniProt Q9NY46); test: Inhibition of human Nav1.3 channel at 1 uM
[19] = Activity at rat dorsal root ganglion in resting state with prepulse voltage of -100 mV assessed as blockade of TTx-resistant sodium current at 0.1 uM by whole-cell patch clamp technique; format: functional
[20] = molecular target: Sodium channel protein type 2 subunit alpha (Homo sapiens) (UniProt Q99250); test: Inhibition of human Nav1.2 channel at 1 uM
[21] = molecular target: T1, Sodium channel protein type 10 subunit alpha; test: Inhibition of human recombinant Nav 1.8 channel expressed in HEK293 cells at 0.1 uM; format: cell-based
[22] = Activity at rat dorsal root ganglion in inactivated state with prepulse voltage of -40 mV assessed as blockade of TTx-resistant sodium current at 0.3 uM by whole-cell patch clamp technique; format: functional
[23] = Activity at rat dorsal root ganglion in inactivated state with prepulse voltage of -40 mV assessed as blockade of TTx-resistant sodium current at 0.1 uM by whole-cell patch clamp technique; format: functional
[24] = molecular target: T1, Sodium channel protein type 10 subunit alpha; test: Activity at human recombinant Nav 1.8 channel expressed in HEK293 cells in resting state with prepulse voltage of -100 mV assessed as blockade of TTx-resistant sodium current at 0.1 uM; format: cell-based
[25] = Aqueous solubility of the compound; format: physicochemical

T1 sequence (Q9Y5Y9 whole entry, looked up): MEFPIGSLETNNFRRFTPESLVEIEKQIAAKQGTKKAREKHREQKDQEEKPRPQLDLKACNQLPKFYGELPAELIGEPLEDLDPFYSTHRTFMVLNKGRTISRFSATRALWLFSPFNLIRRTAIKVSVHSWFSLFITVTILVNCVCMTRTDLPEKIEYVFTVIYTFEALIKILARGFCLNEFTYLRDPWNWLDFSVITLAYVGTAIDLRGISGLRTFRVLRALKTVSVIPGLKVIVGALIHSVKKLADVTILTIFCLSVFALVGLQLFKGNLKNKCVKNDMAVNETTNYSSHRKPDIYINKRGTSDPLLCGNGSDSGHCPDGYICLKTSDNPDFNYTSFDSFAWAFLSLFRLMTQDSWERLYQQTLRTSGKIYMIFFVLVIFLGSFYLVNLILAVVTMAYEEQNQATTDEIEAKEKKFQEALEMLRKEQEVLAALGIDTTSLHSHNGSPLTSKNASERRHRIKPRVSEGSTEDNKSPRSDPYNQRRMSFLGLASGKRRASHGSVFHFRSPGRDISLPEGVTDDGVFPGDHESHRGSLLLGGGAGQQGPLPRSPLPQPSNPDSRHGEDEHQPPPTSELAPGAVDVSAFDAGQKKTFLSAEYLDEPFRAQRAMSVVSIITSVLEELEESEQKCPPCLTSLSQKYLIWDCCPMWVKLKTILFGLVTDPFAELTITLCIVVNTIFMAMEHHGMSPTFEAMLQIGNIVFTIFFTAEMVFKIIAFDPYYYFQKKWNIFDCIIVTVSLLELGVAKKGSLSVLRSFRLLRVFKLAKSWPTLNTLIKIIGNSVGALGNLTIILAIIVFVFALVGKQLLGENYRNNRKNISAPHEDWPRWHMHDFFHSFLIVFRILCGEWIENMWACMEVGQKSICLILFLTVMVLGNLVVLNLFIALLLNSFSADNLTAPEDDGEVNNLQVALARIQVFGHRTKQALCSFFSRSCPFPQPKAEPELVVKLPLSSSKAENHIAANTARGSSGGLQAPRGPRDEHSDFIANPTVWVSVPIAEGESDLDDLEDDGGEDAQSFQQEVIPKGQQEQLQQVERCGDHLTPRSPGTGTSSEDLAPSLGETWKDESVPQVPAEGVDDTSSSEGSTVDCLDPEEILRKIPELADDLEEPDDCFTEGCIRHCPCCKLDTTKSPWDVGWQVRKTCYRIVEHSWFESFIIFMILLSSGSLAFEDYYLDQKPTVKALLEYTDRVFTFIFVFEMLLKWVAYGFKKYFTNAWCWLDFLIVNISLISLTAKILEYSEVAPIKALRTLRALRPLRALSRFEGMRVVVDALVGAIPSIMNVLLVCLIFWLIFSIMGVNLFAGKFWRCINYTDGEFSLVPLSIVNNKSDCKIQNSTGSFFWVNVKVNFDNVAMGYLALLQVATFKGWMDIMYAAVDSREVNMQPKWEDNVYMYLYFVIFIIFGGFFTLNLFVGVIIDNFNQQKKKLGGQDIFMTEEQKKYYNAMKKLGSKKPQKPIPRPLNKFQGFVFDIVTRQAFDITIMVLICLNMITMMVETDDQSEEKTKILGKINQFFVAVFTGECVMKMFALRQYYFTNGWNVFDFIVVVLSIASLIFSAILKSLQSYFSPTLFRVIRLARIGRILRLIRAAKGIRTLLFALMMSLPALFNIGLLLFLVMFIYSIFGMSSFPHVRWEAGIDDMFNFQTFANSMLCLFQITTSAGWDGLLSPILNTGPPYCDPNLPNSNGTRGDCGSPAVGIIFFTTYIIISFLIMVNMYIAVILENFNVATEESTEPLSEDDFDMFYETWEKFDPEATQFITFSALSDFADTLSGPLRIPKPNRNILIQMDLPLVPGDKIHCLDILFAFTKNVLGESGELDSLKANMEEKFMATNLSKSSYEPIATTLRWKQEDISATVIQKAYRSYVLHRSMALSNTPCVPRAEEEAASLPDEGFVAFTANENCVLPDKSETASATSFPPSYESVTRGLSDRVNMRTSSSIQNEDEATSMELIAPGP
Sequence of Sodium channel protein type 10 subunit alpha (Mus musculus, UniProt Q6QIY3) (Q6QIY3 whole entry): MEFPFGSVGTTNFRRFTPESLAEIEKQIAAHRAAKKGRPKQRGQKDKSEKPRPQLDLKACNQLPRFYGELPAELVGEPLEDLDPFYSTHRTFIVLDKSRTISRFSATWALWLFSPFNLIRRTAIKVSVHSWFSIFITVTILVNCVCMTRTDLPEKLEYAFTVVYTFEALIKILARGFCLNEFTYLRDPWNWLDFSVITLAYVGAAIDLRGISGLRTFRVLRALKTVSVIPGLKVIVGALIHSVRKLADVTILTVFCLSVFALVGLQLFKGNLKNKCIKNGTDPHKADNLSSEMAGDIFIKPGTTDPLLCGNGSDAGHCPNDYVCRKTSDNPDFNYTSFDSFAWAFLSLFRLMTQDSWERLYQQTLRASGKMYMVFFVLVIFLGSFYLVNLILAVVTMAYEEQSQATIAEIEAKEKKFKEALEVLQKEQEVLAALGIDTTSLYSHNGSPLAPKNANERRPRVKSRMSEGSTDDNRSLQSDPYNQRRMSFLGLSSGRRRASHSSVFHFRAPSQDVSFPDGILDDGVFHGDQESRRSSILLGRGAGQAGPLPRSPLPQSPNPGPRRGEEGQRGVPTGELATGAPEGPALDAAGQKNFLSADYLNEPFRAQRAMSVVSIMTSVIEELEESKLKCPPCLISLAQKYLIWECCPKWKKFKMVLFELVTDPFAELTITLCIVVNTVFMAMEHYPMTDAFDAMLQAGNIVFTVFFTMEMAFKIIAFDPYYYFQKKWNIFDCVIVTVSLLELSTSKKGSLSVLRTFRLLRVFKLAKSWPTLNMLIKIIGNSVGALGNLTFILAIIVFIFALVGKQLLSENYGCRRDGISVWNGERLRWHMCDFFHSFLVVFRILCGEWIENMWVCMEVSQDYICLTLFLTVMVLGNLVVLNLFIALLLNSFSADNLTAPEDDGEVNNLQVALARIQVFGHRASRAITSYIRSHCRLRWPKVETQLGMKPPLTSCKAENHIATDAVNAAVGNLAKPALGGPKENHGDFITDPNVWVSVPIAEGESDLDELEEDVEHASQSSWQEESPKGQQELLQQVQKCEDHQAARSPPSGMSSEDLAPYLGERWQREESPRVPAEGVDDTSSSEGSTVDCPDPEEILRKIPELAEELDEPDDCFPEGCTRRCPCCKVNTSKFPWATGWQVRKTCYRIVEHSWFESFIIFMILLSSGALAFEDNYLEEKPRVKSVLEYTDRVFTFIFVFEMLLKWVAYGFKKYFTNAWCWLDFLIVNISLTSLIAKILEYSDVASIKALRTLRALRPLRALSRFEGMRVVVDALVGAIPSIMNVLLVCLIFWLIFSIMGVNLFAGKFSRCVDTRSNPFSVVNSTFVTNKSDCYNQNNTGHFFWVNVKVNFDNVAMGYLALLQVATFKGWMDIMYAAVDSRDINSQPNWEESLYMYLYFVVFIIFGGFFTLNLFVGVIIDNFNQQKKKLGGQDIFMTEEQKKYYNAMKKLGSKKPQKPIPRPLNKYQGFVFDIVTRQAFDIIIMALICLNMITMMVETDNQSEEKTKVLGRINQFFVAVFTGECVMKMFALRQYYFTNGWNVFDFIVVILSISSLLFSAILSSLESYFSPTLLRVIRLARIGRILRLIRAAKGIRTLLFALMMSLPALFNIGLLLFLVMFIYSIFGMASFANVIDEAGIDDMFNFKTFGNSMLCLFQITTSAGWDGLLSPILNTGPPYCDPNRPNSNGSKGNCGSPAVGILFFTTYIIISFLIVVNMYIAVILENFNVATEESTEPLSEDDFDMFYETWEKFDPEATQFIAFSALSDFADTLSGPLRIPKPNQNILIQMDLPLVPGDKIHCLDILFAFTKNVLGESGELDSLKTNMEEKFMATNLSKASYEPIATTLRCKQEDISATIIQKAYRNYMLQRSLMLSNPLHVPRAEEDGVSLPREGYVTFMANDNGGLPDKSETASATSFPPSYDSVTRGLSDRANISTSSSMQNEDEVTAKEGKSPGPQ
Sequence of Voltage-gated inwardly rectifying potassium channel KCNH2 (Q12809 whole entry): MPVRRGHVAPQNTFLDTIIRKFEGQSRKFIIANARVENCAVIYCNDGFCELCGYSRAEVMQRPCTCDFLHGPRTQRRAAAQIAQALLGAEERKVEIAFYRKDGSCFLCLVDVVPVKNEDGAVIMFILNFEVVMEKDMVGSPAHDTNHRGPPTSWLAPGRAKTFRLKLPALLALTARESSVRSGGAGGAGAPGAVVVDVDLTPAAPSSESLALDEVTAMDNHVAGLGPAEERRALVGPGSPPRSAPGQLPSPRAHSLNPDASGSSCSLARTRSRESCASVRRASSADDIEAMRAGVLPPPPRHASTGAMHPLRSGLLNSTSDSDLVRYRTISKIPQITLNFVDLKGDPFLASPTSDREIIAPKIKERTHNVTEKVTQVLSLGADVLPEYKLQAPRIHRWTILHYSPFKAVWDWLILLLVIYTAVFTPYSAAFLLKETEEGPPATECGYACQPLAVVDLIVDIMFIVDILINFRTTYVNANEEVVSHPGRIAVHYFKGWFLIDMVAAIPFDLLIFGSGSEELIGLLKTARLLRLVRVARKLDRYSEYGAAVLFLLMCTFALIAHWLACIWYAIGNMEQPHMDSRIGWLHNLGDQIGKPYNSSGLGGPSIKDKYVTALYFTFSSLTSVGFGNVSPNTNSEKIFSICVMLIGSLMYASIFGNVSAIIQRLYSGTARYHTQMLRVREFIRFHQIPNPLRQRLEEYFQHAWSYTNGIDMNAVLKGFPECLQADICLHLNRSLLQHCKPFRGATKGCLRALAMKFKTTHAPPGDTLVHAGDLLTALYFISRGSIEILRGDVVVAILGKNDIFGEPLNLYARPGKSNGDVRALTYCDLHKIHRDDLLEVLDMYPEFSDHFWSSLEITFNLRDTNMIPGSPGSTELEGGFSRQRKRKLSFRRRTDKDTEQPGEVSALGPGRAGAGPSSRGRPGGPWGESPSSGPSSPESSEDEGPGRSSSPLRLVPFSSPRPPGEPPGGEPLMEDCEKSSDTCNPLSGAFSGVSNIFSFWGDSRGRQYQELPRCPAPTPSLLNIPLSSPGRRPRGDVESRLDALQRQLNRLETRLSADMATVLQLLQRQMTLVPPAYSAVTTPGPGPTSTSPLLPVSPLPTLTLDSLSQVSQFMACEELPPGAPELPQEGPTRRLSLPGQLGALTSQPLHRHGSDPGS

Cc1cc(NC(=O)c2ccc(-c3ccc(Cl)cc3)o2)ccn1
IC50 [1]: 2.5 µM

CN1CCCc2cc(NC(=O)c3ccc(-c4ccc(Cl)cc4)o3)ccc21
inhibition [2]: 66%
inhibition [3]: 55%
inhibition [4]: 70%
inhibition at 0.003 µM [5]: 31%
inhibition at 0.03 µM [6]: 79%
inhibition [7]: 27%
inhibition [8]: 70%
inhibition [9]: 37%
inhibition at 3 µM [10]: 71%
IC50 [11]: 5.3 µM
inhibition at 0.003 µM [12]: 44%
inhibition [13]: 38%
inhibition [14]: 44%
inhibition [15]: 56%
inhibition at 0.3 µM [16]: 28%
IC50 [1]: 2.9 µM

CCOc1ccc(-c2ccc(C(=O)Nc3cccc(C)c3)o2)cc1
IC50 [1]: 0.43 µM

O=C(Nc1cccc(C2=NCCO2)c1)c1ccc(-c2ccc(Cl)cc2)o1
IC50 [1]: 2.5 µM

CN1CCc2ccc(NC(=O)c3ccc(-c4ccc(Cl)cc4)o3)cc21
IC50 [1]: 4.6 µM

Cc1cccc(NC(=O)c2ccc(-c3ccc(Cl)cc3)o2)c1
inhibition [3]: 68%
inhibition [17]: 77%
inhibition [7]: 61%
inhibition [18]: 17%
inhibition at 0.1 µM [19]: 3%
inhibition [9]: 61%
inhibition [20]: 33%
inhibition [21]: 77%
inhibition at 3 µM [10]: 51%
IC50 [11]: 27 µM
inhibition [13]: 54%
inhibition [14]: 41%
inhibition at 0.3 µM [22]: 60%
inhibition [15]: 68%
inhibition at 0.3 µM [16]: 18%
inhibition at 0.1 µM [23]: 37%
IC50 [1]: 0.48 µM
inhibition [24]: 67%
solubility [25]: < 0.1 µg/mL

Cc1cccc(NC(=O)c2ccc(-c3cccc(C#N)c3)o2)c1
IC50 [1]: 30 µM

O=C(Nc1ccc2ncccc2c1)c1ccc(-c2ccc(Cl)cc2)o1
IC50 [1]: 10 µM

CN1CCOc2cc(NC(=O)c3ccc(-c4ccc(Cl)cc4)o3)ccc21
IC50 [1]: 0.97 µM

O=C(c1ccc(-c2ccc(Cl)cc2)o1)N1CCOCC1
IC50 [1]: > 30 µM

CN(C)C1CCN(C(=O)c2ccc(-c3ccc(Cl)cc3)o2)CC1
IC50 [1]: 5.2 µM

O=C(Nc1ccc2cc[nH]c2c1)c1ccc(-c2ccc(Cl)cc2)o1
IC50 [1]: 3.1 µM

— ChEMBL document CHEMBL1140726, “Discovery and biological evaluation of 5-aryl-2-furfuramides, potent and selective blockers of the Nav1.8 sodium channel with efficacy in models of neuropathic and inflammatory pain” (J Med Chem, 2008)
